Patent US6924302B2, “Substituted triazole diamine derivatives as kinase inhibitors” (Ortho McNeil Pharmaceutical, Inc., priority 2000, dated 2005)
pIC50: −log10 of the molar value.

What was measured:
Conditions in all cases: Tables 2a-2k
[1] = molecular target: PKC (protein kinase-C), gamma or beta isoform; assay: Kinase Selectivity Assay PKC; format: biochemical, human
Experimental: Assays to test compound inhibition of other kinases were preformed using methods that measure the amount of phosphorylation of a biotinylated peptide substrate. Biotinylated peptide substrates were selected from the literature as appropriate for the enzyme being evaluated. […] Assay conditions vary slightly for each protein kinase, for example, insulin receptor kinase requires 10 mM MnCl2 for activity and Calmodulin-dependent protein kinase requires calmodulin and 10 mM CaCl2. These assay conditions are known in the art. The reaction mixture was dispensed into the wells of a streptavidin coated Flashplate and 1 μl drug stock in 100% DMSO was added to a 100 μl reaction volume resulting in a final concentration of 1% DMSO on the reaction. Enzyme was diluted in 50 mM Tris-HCl pH=8.0, 0.1% BSA and add to each well. The reaction was incubated for one hour at 30° C. in the presence of compound. After one hour the reaction mix was aspirated from the plate and the plate was washed with PBS containing 100 mM EDTA. The plate was read on a scintillation counter to determine ^33P-γ-ATP incorporated into the immobilized peptide. Test compounds were assayed in duplicate at 8 concentrations [100 uM, 10 uM, 1 uM, 100 nM, 10 nM, 1 nM, 100 pM, 10 pM]. A maximum and minimum signal for the assay was determined on each plate. The IC50 was calculated from the dose response curve of the percent inhibition of the maximum signal in the assay according to the formula [max signal—background/test compound signal—background (100)=% inhibition] by graphing the percent inhibition against the log concentration of test compound. Known inhibitor compounds appropriate for the kinase being assayed were also included on each plate.
CDK2 in complex with cyclin A is commercially available (Upstate Biotech, Lake Placid, N.Y.). […]

CDK4/D1 complex = molecular target: T1, CDK4/D1 complex (Mus musculus, UniProt P30285); assay: Kinase Selectivity Assay CDK4; format: biochemical
T1 construct: made in house; host or cells: insect cells (baculovirus co-infection)
T1 sequence (P30285 whole entry): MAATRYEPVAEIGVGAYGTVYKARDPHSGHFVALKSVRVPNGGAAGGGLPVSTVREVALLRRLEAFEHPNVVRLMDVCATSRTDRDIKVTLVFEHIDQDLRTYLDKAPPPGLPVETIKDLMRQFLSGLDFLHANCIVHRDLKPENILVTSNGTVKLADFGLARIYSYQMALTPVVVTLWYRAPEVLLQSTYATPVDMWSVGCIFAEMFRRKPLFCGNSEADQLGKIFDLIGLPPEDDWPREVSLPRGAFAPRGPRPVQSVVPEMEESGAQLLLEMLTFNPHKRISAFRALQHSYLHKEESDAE
T1 sequence (P25322 whole entry partner): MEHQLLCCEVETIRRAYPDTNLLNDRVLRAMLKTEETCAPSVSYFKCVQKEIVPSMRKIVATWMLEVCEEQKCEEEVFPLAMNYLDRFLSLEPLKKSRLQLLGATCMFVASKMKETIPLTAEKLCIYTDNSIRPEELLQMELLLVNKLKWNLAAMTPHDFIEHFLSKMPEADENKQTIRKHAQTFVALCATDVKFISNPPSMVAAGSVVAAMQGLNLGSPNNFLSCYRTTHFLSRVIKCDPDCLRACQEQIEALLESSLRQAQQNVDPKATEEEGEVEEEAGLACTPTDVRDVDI
Experimental: Assays to test compound inhibition of other kinases were preformed using methods that measure the amount of phosphorylation of a biotinylated peptide substrate. Biotinylated peptide substrates were selected from the literature as appropriate for the enzyme being evaluated. The general procedure used to assay for kinase activity is as follows: A kinase reaction mix was prepared in 50 mM Tris-HCl pH=8, 10 mM MgCl2, 0.1 mM Na3VO4, 1 mM DTT, 10 μM ATP, 0.25-1 μM biotinylated peptide substrate, 0.2-0.82 μCuries per well ^33P-γ-ATP [2000-3000 Ci/mmol]. Assay conditions vary slightly for each protein kinase, for example, insulin receptor kinase requires 10 mM MnCl2 for activity and Calmodulin-dependent protein kinase requires calmodulin and 10 mM CaCl2. These assay conditions are known in the art. The reaction mixture was dispensed into the wells of a streptavidin coated Flashplate and 1 μl drug stock in 100% DMSO was added to a 100 μl reaction volume resulting in a final concentration of 1% DMSO on the reaction. Enzyme was diluted in 50 mM Tris-HCl pH=8.0, 0.1% BSA and add to each well. The reaction was incubated for one hour at 30° C. in the presence of compound. After one hour the reaction mix was aspirated from the plate and the plate was washed with PBS containing 100 mM EDTA. The plate was read on a scintillation counter to determine ^33P-γ-ATP incorporated into the immobilized peptide. Test compounds were assayed in duplicate at 8 concentrations [100 uM, 10 uM, 1 uM, 100 nM, 10 nM, 1 nM, 100 pM, 10 pM]. A maximum and minimum signal for the assay was determined on each plate. The IC50 was calculated from the dose response curve of the percent inhibition of the maximum signal in the assay according to the formula [max signal—background/test compound signal—background (100)=% inhibition] by graphing the percent inhibition against the log concentration of test compound. Known inhibitor compounds appropriate for the kinase being assayed were also included on each plate. […]

ERK-1 protein = molecular target: T2, ERK-1 protein (Homo sapiens, UniProt P27361); assay: Kinase Selectivity Assay ERK-1; format: biochemical
T2 construct: purchased Calbiochem
T2 sequence (P27361 whole entry, species assumed): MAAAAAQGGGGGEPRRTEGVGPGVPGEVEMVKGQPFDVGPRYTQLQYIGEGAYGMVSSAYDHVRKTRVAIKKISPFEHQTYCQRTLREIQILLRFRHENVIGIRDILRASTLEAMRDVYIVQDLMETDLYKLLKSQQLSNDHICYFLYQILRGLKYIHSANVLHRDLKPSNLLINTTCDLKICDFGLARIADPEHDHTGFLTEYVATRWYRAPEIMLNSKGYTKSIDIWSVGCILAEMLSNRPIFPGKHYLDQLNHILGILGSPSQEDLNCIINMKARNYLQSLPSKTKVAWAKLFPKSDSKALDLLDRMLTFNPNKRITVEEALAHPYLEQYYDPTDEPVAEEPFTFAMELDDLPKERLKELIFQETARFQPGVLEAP
Experimental: Assays to test compound inhibition of other kinases were preformed using methods that measure the amount of phosphorylation of a biotinylated peptide substrate. Biotinylated peptide substrates were selected from the literature as appropriate for the enzyme being evaluated. The general procedure used to assay for kinase activity is as follows: A kinase reaction mix was prepared in 50 mM Tris-HCl pH=8, 10 mM MgCl2, 0.1 mM Na3VO4, 1 mM DTT, 10 μM ATP, 0.25-1 μM biotinylated peptide substrate, 0.2-0.82 μCuries per well ^33P-γ-ATP [2000-3000 Ci/mmol]. Assay conditions vary slightly for each protein kinase, for example, insulin receptor kinase requires 10 mM MnCl2 for activity and Calmodulin-dependent protein kinase requires calmodulin and 10 mM CaCl2. These assay conditions are known in the art. […] The plate was read on a scintillation counter to determine ^33P-γ-ATP incorporated into the immobilized peptide. […] A maximum and minimum signal for the assay was determined on each plate. The IC50 was calculated from the dose response curve of the percent inhibition of the maximum signal in the assay according to the formula [max signal—background/test compound signal—background (100)=% inhibition] by graphing the percent inhibition against the log concentration of test compound. […]

Structure (SMILES) | pIC50 (CDK4/D1 complex) | further results
Cc1ccsc1C(=O)n1nc(Nc2ccc(N3CCNC3=O)cc2)nc1N [Cpd 113, 1-[4-[[5-amino-1-[(3-methyl-2-thienyl)carbonyl]-1H-1,2,4-triazol-3-yl]amino]phenyl]-2-imidazolidinone] |  | pIC50 [1]: < 4.00
CN1CCN(c2ccc(Nc3nc(N)n(C(=O)c4c(F)cccc4F)n3)cc2)CC1 [Cpd 71, 1-(2,6-difluorobenzoyl)-N^3-[4-(4-methyl-1-piperazinyl)phenyl]-1H-1,2,4-triazole-3,5-diamine] | 6.89 | 
Cc1ccc(F)c(C(=O)n2nc(Nc3ccc(S(N)(=O)=O)cc3)nc2N)c1Cl [Cpd 69, 4-[[5-amino-1-(2-chloro-6-fluoro-3-methylbenzoyl)-1H-1,2,4-triazol-3-yl]amino]-benzenesulfonamide] | 6.73 | 
Nc1nc(Nc2ccc(S(N)(=O)=O)cc2)nn1C(=O)c1c(F)cccc1Cl [Cpd 70, 4-[[5-amino-1-(2-chloro-6-fluorobenzoyl)-1H-1,2,4-triazol-3-yl]amino]-benzenesulfonamide] | 6.78 | 
Nc1nc(Nc2ccc(S(N)(=O)=O)cc2)nn1C(=O)c1cccs1 [Cpd 14, 4-[[5-amino-1-(2-thienylcarbonyl)-1H-1,2,4-triazol-3-yl]amino]-benzenesulfonamide] |  | pIC50 (ERK-1 protein): < 4.00
